Data on 21 compounds can be found in ChEMBL document CHEMBL1148381, “Application of CoMFA and CoMSIA 3D-QSAR and docking studies in optimization of mercaptobenzenesulfonamides as HIV-1 integrase inhibitors” (J Med Chem, 2004).

The target of experiment [1] is T1, Human immunodeficiency virus type 1 integrase (Human immunodeficiency virus 1, UniProt Q7ZJM1). Nature of the experiment: Inhibitory activity against DNA strand transfer by HIV integrase.
Experiment [2] deals with T1, Human immunodeficiency virus type 1 integrase. The experiment can be described thus: Inhibitory activity against 3' processing by HIV integrase.

Each structure is given as a SMILES string.

T1 sequence (Q7ZJM1 whole entry): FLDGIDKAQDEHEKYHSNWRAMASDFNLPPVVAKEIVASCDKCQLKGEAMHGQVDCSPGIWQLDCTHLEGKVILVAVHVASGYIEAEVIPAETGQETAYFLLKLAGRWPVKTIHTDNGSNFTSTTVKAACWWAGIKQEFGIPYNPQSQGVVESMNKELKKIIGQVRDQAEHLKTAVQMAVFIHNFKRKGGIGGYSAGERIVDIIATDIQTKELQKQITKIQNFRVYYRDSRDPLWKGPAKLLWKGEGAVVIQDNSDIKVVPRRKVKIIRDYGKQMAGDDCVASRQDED

On to `Cc1cc(S(=O)(=O)Nc2nc(Nc3ccc(Cl)cc3)nn2C)c(S)cc1Cl`, for which the IC50 (usually the concentration needed to halve the response being measured) was 17.8 µM in experiment [1] and 16.2 µM in experiment [2].
On the same counts, the results for `COc1cc(Nc2nnc(NS(=O)(=O)c3cc(C)c(Cl)cc3S)[nH]2)cc(OC)c1OC` are 16.6 µM and 15.5 µM.
`O=S(=O)(Nc1nnc2n1-c1ccccc1CC2)c1ccc(Cl)cc1S`: the figures for the IC50 in experiment [1] and in experiment [2] were 19.5 µM and 21.9 µM, respectively.
`Cc1cc2c(cc1Cl)SC(C(C#N)C(=O)c1ccccc1)NS2(=O)=O` (configuration not stated): the IC50 in experiment [1] was 112 µM; in experiment [2], 200 µM.
`Cc1ccc(NC(=O)c2cc(S(=O)(=O)Nc3nncn3CC(C)C)c(S)cc2Cl)cc1`: the IC50 in experiment [1] is 100 µM; in experiment [2], 75.9 µM.
Take `Cc1cc(S(=O)(=O)Nc2nc3ccccc3nc2-c2ccc(Br)cc2)c(S)cc1Cl`: the IC50 in experiment [1] is 7.94 µM; in experiment [2], 12.3 µM.
Consider `O=C(Nc1ccc(F)cc1)c1cc(S(=O)(=O)Nc2nncn2-c2ccc(F)cc2)c(S)cc1Cl`, for which the figures for the IC50 in experiment [1] and in experiment [2] were 37.2 µM and 79.4 µM, respectively.
For the compound `O=C1NC(=S)SC1NS(=O)(=O)c1ccc(-c2ncccn2)cc1` (configuration not stated), the IC50 in experiment [1] was 14.1 µM; in experiment [2] it was 28.8 µM.
`COc1cccc(Nc2n[nH]c(NS(=O)(=O)c3cc(C)c(Cl)cc3S)n2)c1`: the 50% inhibitory concentration (IC50) in experiment [1] is 20.9 µM; in experiment [2] it was 6.31 µM.
Turning to `CCC(C)n1cnnc1NS(=O)(=O)c1cc(C(=O)Nc2ccc(C)cc2)c(Cl)cc1S` (configuration not stated), the IC50 in experiment [1] was 112 µM; in experiment [2] it was 200 µM.
`Cc1cc(S(=O)(=O)Nc2nc(N)n(-c3ccccc3)n2)c(S)cc1Cl`: the IC50 is 13.2 µM in experiment [1] and 10.7 µM in experiment [2].
On the same counts, the results for `CC(C)Cn1cnnc1NS(=O)(=O)c1cc(C(=O)Nc2ccc(Cl)cc2)c(Cl)cc1S` are 39.8 µM and 38 µM.
In the case of `CCCn1cnnc1NS(=O)(=O)c1cc(C(=O)Nc2ccc(C)cc2)c(Cl)cc1S`, the IC50 in experiment [1] was 39.8 µM; in experiment [2] it was 40.7 µM.
With `Cc1cc(S(=O)(=O)Nc2nnc3c4scc(C)c4ncn23)c(S)cc1Cl`, the 50% inhibitory concentration (IC50) is 7.41 µM in experiment [1] and 9.33 µM in experiment [2].
Turning to `Cc1cc(S(=O)(=O)NC(=NN)NNc2cccc(C(F)(F)F)n2)c(S)cc1Cl`, the IC50 in experiment [1] is 100 µM; in experiment [2], 87.1 µM.
For the compound `Cc1cc(S(=O)(=O)Nc2nnc3c4ccccc4ccn23)c(S)cc1Cl`, the values for the IC50 in experiment [1] and in experiment [2] were 10.7 µM and 13.2 µM, respectively.
Turning to `Cc1cc(S(=O)(=O)Nc2nc3ccccc3nc2-c2ccc(Cl)cc2)c(S)cc1Cl`, the half-maximal inhibitory concentration (IC50) in experiment [1] was 12 µM; in experiment [2], 20 µM.
`CC1N=NC(c2ccc(S(=O)(=O)NC3SC(=S)NC3=O)cc2)S1` (configuration not stated): the results for the IC50 in experiment [1] and in experiment [2] were 19.1 µM and 24 µM, respectively.
In the case of `CCN(c1ccccc1)c1nc(N)nc(NS(=O)(=O)c2cc(C)c(Cl)cc2S)n1`, the IC50 in experiment [1] was 24.5 µM; in experiment [2], 17.4 µM.
Turning to `CC1=NN(c2ccccc2)C(=O)C1/N=N/c1ccc(S(=O)(=O)Nc2scc(C)c2C)cc1` (configuration not stated), the 50% inhibitory concentration (IC50) in experiment [1] is 107 µM; in experiment [2], 129 µM.
For `NS(=O)(=O)c1ccc(/N=N/C2Sc3nc4ccccc4n3C2=O)cc1` (configuration not stated), the values for the IC50 in experiment [1] and in experiment [2] were 126 µM and 209 µM, respectively.
